The values that follow come from US11072632B2, “Inhibitors of 17β-HSD1, 17β-HSD3 and 17β-HSD10” (UNIVERSITÉ LAVAL, priority 2011, dated 2021).

The structures appear in SMILES notation. Where “and” joins values, the source holds several entries; their conditions need not be identical. Equal values may be shown once. Read-outs that look alike come from different tables or passages of the source. A value given as a limit tells only on which side of the number the result lay.

For data set [1], the target named is T1, 17β-HSD10 (Homo sapiens, UniProt Q99714).
T1 construct: expressed in transfected cells
T1 sequence (Q99714 1-261): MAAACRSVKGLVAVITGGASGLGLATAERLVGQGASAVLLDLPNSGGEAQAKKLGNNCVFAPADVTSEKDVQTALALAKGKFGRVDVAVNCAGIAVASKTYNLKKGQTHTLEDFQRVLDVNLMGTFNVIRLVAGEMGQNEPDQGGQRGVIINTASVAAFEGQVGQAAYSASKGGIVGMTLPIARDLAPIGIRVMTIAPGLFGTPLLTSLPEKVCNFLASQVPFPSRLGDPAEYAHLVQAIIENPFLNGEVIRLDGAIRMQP
Briefly: Inhibition of 17β-HSD10 in stably transfected HEK-293 whole cells (E2 into E1). The format is cell-based.

Data set [2] addresses T1, 17β-HSD10. Particulars: read-out: Km of the enzyme for E2 as a substrate; cited from earlier work.
For data set [3], the system named is ovariectomized (OVX) mice. Description: In vivo estrogenic activity (uterotrophic assay) in OVX mice. Set-up: species or system mouse. Particulars: OVX mice, s.c. BID, 7 days. The procedure:
The mice were fed rodent chow and tap water ad libitum. The animals were ovariectomized (OVX) under isoflurane-anaesthesia via bilateral flank incisions and randomly assigned to groups (5 animals by group). Mice in the OVX control group received the vehicle alone (8% ethanol-0.4% methylcellulose) during the 7-day period. The possible estrogenic activity of tested compounds was evaluated after their administration by subcutaneous (s.c.) injection [1, 10 and 100 μg/kg, s.c., twice daily (BID)] as suspension in 8% ethanol-0.4% methylcellulose to OVX female mice for 7 days. On day 8, the mice were sacrificed by cervical dislocation. The uteri and vagina were rapidly removed, freed from fat and connective tissue and weighed. Results are the means±SEM of 5 mice per group.

The target of data set [4] is T2, 17β-HSD3 (Homo sapiens, UniProt P37058).
T2 construct: expressed in transfected cells; host or cells: HEK-293 (homogenate)
T2 sequence (P37058 1-310): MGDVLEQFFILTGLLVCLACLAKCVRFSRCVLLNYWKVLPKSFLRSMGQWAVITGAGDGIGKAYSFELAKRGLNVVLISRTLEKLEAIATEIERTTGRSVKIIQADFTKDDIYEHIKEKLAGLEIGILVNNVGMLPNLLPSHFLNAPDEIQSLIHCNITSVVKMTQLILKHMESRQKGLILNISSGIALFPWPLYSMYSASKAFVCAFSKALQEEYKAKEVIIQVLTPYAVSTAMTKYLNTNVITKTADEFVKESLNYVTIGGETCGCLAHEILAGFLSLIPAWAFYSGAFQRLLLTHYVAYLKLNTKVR
Description: Inhibition of 17β-HSD3 in homogenated HEK-293 cells. The format is biochemical.

For data set [5], the system named is androgen-sensitive (AR+) Shionogi cells. Briefly: Proliferative (androgenic) activity on androgen-sensitive Shionogi cells. It counts as cell-based. Particulars: for cell proliferation, % of basal: basal (control) 100%; for proliferative (androgenic) effect: 0.1 and 1 μM. On the procedure: The proliferative (androgenic) activity was determined using androgen-sensitive Shionogi cells following a known literature procedure.^54 Inhibitors and reference compounds were tested at two concentrations (0.1 and 1.0 μM). The androgenicity was reported as % cell proliferation (versus the control). The basal cell proliferation (control) was fixed at 100%.

Data set [6] has as its target T2, 17β-HSD3. Briefly: Inhibition of 17β-HSD3 in intact HEK-293 cells. It counts as cell-based.
The test system of data set [7] is ovariectomized (OVX) BALB/c mice. Description: In vivo estrogenicity assay in OVX mice (uterus, vagina weight). Set-up: species or system mouse. Particulars: OVX mice, s.c., 0.02 μg/mouse/day. The procedure:
Female ovariectomized (OVX) BALB/c mice weighing approximately 20 g were obtained from Charles-River, Inc. (St-Constant, Qc., Canada). The animals were housed 5 per cage. Groups of 5 mice were treated with E1 (0.02 μg in 8% EtOH/92% PG) or 17β-HSD1 inhibitor at 10, 50 and 250 μg (0.1 mL s.c.) daily for 7 days. Animals were killed 24 h after administration of the last dose of compound and uteri and vagina were removed, excised of fat and weighed. Total body weights of mice were also recorded.

The subject of the next data set is T-47D cells. Briefly: Inhibition of E1-stimulated T-47D cell proliferation. Particulars: E1 0.1 nM, no inhibitor; control 100%. The format is cell-based, human. The procedure:
Quantification of cell growth was determined by using CellTiter 96®Aqueous Solution Cell Proliferation Assay (Promega, Nepean, ON, Canada) following the manufacturer's instructions. T-47D cells were resuspended with the medium supplemented with insulin (50 ng/mL) and 5% dextran-coated charcoal treated FBS rather than 10% FBS to remove remaining hormones. Aliquots (100 μL) of the cell suspension were seeded in 96-well plates (3000 cells/well). After 48 h, the medium was changed with a new one containing an appropriate concentration of products to be tested and was replaced every 2 days. Cells have grown either in absence or presence of the compounds for 7 days. To determine the proliferative (estrogenic) activity, the estrogen-sensitive T-47D cells were grown in absence (basal cell proliferation was fixed as 100%) or presence of compounds to be tested at 0.5 to 10 μM. The potent estrogen E2 was used as a reference control. […] The cell proliferation without E1±inhibitor (control) was fixed as 100%. To determine the potential antiestrogenic activity of inhibitor Compound V, the T-47D (ER^+) cells were grown in the presence of estrogen E2 (0.1 nM) and pure antiestrogen EM-139 (0.5 μM) or inhibitor Compound V (0.5 μM). The cell proliferation without E2 and tested compounds (control) were fixed as 100%.

In the next data set the test system is T-47D tumors. Description: Inhibition of E1-stimulated T-47D tumor growth in nude OVX mice (xenograft). It counts as in vivo, mouse. On the procedure: Female OVX BALB/c athymic nude mice weighing approximately 20 g were obtained from Charles-River, Inc. (St-Constant, Qc., Canada). The animals were housed 5 per cage. […] T-47D tumor growth was stimulated using 0.1 μg of E1 s.c. per mouse per day for 15 days. From day 16, animals with tumors were randomized in function of tumor volume and separated into three groups. Group 1 (control mice) was treated s.c. with 100 μL of vehicle alone (8% EtOH/92% PG) per mouse per day. Group 2 (E1 0.1 μg) was treated with E1 (0.1 μg/day, s.c. per mouse) during 32 days. Group 3 (E1 0.1 μg+Compound V 250 μg) was treated with E1 (0.1 μg/day) and Compound V (250 μg/day) per mouse in a combined s.c. injection for 32 days. The mice were weighed at start and volumes of tumors were determined by external caliper twice a week and the greatest longitudinal diameter (length) and the greatest transverse diameter (width) were determined. Tumor volume based on caliper measurements was calculated by the modified ellipsoidal formula: Tumor volume=½(length×width^2) (Jensen M M, Jorgensen J T, Binderup T, Kjaer A. Tumor volume in subcutaneous mouse xenografts measured by microCT is more accurate and reproducible than determined by 18F-FDG-microPET or external caliper. BMC Med Imaging 2008; 8:16). At the end of the studies the mice were terminally anaesthetized, final body weights and tumor sizes were determined. Uteri and vagina were removed, excised of fat and weighed (Day J M, Foster P A, Tutill H J, Parsons M F, Newman S P, Chander S K, et al. 17beta-hydroxysteroid dehydrogenase type 1, and not type 12, is a target for endocrine therapy of hormone-dependent breast cancer. Int J Cancer 2008; 122:1931-40; Husen B, Huhtinen K, Poutanen M, Kangas L, Messinger J, Thole H. Evaluation of inhibitors for 17beta-hydroxysteroid dehydrogenase type 1 in vivo in immunodeficient mice inoculated with MCF-7 cells stably expressing the recombinant human enzyme. Mol Cell Endocrinol 2006; 248:109-13; Husen B, Huhtinen K, Saloniemi T, Messinger J, Thole H H, Poutanen M: Human hydroxysteroid (17-beta) dehydrogenase 1 expression enhances estrogen sensitivity of MCF-7 breast cancer cell xenografts. Endocrinology 2006; 147:5333-9; Messinger J, Hirvela L, Husen B, Kangas L, Koskimies P, Pentikainen O, et al. New inhibitors of 17beta-hydroxysteroid dehydrogenase type 1. Mol Cell Endocrinol 2006; 248:192-8).

As to `C[C@]12CC[C@@H]3c4ccc(O)cc4CC[C@H]3[C@@H]1CC[C@@H]2O` [17β-E2 (1), 17β-estradiol], the IC50 (commonly the concentration that inhibits the measured activity by half) against 17β-HSD10 [1] was above 10 µM. The Km (in general, the substrate concentration at which the rate is half of its maximum) on 17β-HSD10 [2] is 43 µM. Moreover, the uterine weight in [3] (1 μg/kg) was found to be 125 mg; in data set [3] (10 μg/kg), 155 mg; in data set [3] (100 μg/kg), 160 mg.
As for `CCN(Cc1ccccc1)C[C@@]1(O)CC[C@@]2(C)[C@@H](CC[C@@H]3[C@@H]2CC[C@]2(C)C(=O)CC[C@@H]32)C1` [Compound 7a, (3α,5α)-3{[benzyl(ethyl)amino]methyl}3-hydroxyandrostan-17-one], the inhibition at 0.1 µM on 17β-HSD3 [4] (Table 2 (17β-HSD3), 0.1 μM, read-out: Homo (%) (0.1 μM)) came to 85%; at 17β-HSD3 [6] (HEK293, 1 h, Table 2 (17β-HSD3), 0.1 μM, read-out: Intact cells (%) (0.1 μM)) it was 86%. Moreover, the inhibition at 1 µM at 17β-HSD3 [4] (Table 2 (17β-HSD3), 1 μM, read-out: Homo (%) (1 μM)) came to 90%; on 17β-HSD3 [6] (HEK293, 1 h, Table 2 (17β-HSD3), 1 μM, read-out: Intact cells (%) (1 μM)), 94%. In addition, the inhibition at 0.01 µM at 17β-HSD3 [4] (Table 2 (17β-HSD3), [14C]-Δ4-dione 50 nM into [14C]-T, 0.01 μM, read-out: Homo (%) (0.01 μM)) came out at 42%. Further, the “cell proliferation, % of basal” value in [5] (0.1 μM) stood at 292%; in data set [5] (1 μM) it was 314%.
In the case of `CC1CN(S(=O)(=O)c2ccccc2C(F)(F)F)C(C)CN1CC1(O)CCC2(C)C(CCC3C4CCC(=O)C4(C)CCC32)C1` (stereo not drawn) [Compound 15b, (3α,5α)-3-{[(2ξ,5ξ)-2,5-dimethyl-4-{[2-(trifluoromethyl)phenyl]sulfonyl}piperazin-1-yl]methyl}-3-hydroxyandrostan-17-one], on 17β-HSD10 [1] ([14C]-E2 (1 μM) into [14C]-E1, intact HEK-293 cells, 1 μM), the “Inhibition (%) at 1 μM” value was determined as 30%. In addition, the “Homo (%) (0.01 μM)” value on 17β-HSD3 [4] (Table 3, 0.01 μM) is listed as 55%. Moreover, the “Homo (%) (0.1 μM)” value on 17β-HSD3 [4] (Table 3, 0.1 μM) is 92%. Moreover, the “proliferative (androgenic) effect” value in data set [5] is “did not stimulate the proliferation of AR^+ cells”. For the same compound, on 17β-HSD3 [6] (Table 3, 0.1 μM), the “Intact cells (%) (0.1 μM)” value is on record as 84%. Also, on 17β-HSD3 [6] (intact HEK-293 cells overexpressing 17β-HSD3, [14C]-Δ4-dione 50 nM), the 50% inhibitory concentration (IC50) is 6 nM and 5 nM. Moreover, at 17β-HSD3 [6] (ratio of IC50 values), the “fold better inhibitor than reference compound 5” value was 8 fold and the “fold better than unlabelled Δ4-dione used as inhibitor” value is 56 fold.
Take `C[C@]12CC[C@@]3(C[C@@H]1CC[C@@H]1[C@@H]2CC[C@]2(C)C(=O)CC[C@@H]12)CN(Cc1ccccc1)C(=O)O3` [Compound 17a, (3R,5S,8R,9S,10S,13S,14S)-3′-benzyl-10,13-dimethyltetradecahydro-2′H spiro[cyclopenta[α]phenanthrene-3,5′-[1,3]oxazolidine]-2′,17(2H)-dione]: the inhibition at 0.01 µM on 17β-HSD3 [4] (read-out: Homo (%) (0.01 μM), Table 4, 0.01 μM) was found to be 21%. The inhibition at 0.1 µM on 17β-HSD3 [4] (read-out: Homo (%) (0.1 μM), Table 4, 0.1 μM) was found to be 86%; at 17β-HSD3 [6] (HEK293, 1 h, read-out: Intact cells (%) (0.1 μM), Table 4, 0.1 μM), 44%. The inhibition at 1 µM on 17β-HSD3 [4] (read-out: Homo (%) (1.0 μM), Table 4, 1.0 μM) worked out at 93%. For the same compound, in [5], the “proliferative (androgenic) effect” value is given as “did not stimulate the proliferation of AR^+ cells”.
On to `C[C@]12CC[C@@H]3c4ccc(O)cc4CC[C@H]3[C@@H]1CCC2=O` [Compound E1, estrone, reference compound], for which, in data set [7], the “increase in uterine weight compared to OVX-CTR (times)” value was found to be 2.5 and the uterine weight amounted to 55 mg. Also, in the data set on T-47D cells, the “cell growth induced by E1 alone” value worked out at 250%. For the same compound, the “tumor size, % of initial size” value with T-47D tumors (E1 0.1 μg/day s.c. alone, 32 days) is 136%. Further, the “effect on mouse weight” value with T-47D tumors (mouse, in vivo) is reported as “no effect”.
